The source of these data is patent US7205408B2, “Quinolines and nitrogenated derivative thereof substituted in 4-position by a piperidine-containing moiety and their use as antibacterial agents” (priority 1920, dated 2007).

Structures can show the parent of a compound that is named as a salt.

A short description of one assay: MIC of test compounds against various organisms. It is filed as cell-based, S. aureus, S. pneumoniae, H. influenzae, E.faecalis.
Settings: not given
As to the method: The MIC (μg/ml) of test compounds against various organisms was determined: S. aureus Oxford, S. aureus WCUH29, S. pneumoniae 1629, S. pneumoniae N1387, S. pneumoniae ERY 2, H. influenzae Q1, E.faecalis 1.
Turning to `COc1ccc2nccc([C@@H](O)CN3CCC(NCc4ccc5c(c4)NC(=O)C(C)S5)CC3)c2c1` (mixture of isomers) [Example 21, 6-({1-[(R)-2-Hydroxy-2-(6-methoxy-quinolin-4-yl)-ethyl)-piperidin-4-ylamino}-methyl)-2-(R/S)-methyl-4H-benzo[1,4]thiazin-3-one dioxalate], the MIC is ≤ 2 µg/mL.
Take `COc1ccc2nccc([C@@H](O)CN3CCC(NCc4ccc5c(c4)NC(=O)CO5)CC3)c2c1` [Example 5, 6-({1-[(R)-2-Hydroxy-2-(6-methoxy-quinolin-4-yl)-ethyl]-piperidin-4-ylamino}-methyl)-4H-benzo[1,4]oxazin-3-one dioxalate]: the MIC was ≤ 2 µg/mL.
On the same count and under the same terms, the same measure for `COc1ccc2nccc([C@@H](O)CN3CCC(NCc4ccc5c(c4)NC(=O)CS5)CC3)c2n1` [Example 16, 6-({1-[(R)-2-Hydroxy-2-(6-methoxy-[1,5]naphthyridin-4-yl)-ethyl]-piperidin-4-ylamino}-methyl)-4H-benzo[1,4]thiazin-3-one dioxalate]: ≤ 0.125 µg/mL; for `COc1ccc2nccc([C@@H](O)CN3CCC(NS(=O)(=O)c4ccc5c(c4)NC(=O)CCS5)CC3)c2n1` [Example 17, 4-Oxo-2,3,4,5-tetrahydro-benzo[b][1,4]thiazepine-7-sulfonic acid {1-[(R)-2-hydroxy-2-(6-methoxy-[1,5]naphthyridin-4-yl)-ethyl]-piperidin-4-yl}-amide oxalate]: ≤ 2 µg/mL; for `COc1ccc2nccc([C@@H](O)CN3CCC(NCc4ccc5c(n4)OCCO5)CC3)c2c1` [Example 19, (R)-2-{4-[(2,3-Dihydro-[1,4]dioxino[2,3-b]pyridin-6-ylmethyl)-amino]-piperidin-1-yl}-1-(6-methoxy-quinolin-4-yl)-ethanol dioxalate]: ≤ 0.125 µg/mL.

The assay is the same for the next values; noted with them: against one or more of S. aureus Oxford, S. aureus WCUH29, S. pneumoniae 1629, S. pneumoniae N1387, S. pneumoniae ERY 2, H. influenzae Q1, E.faecalis 1 (gram positive and gram negative bacteria); read-out: MIC.
For the compound `COc1ccc2nccc([C@@H](O)CN3CCC(NCc4cc5c(cc4[N+](=O)[O-])OCO5)CC3)c2c1.O=C(O)C(=O)O.O=C(O)C(=O)O` [Example 18, (R)-1-(6-Methoxy-quinolin-4-yl)-2-{4-[(6-nitro-benzo[1,3]dioxol-5-ylmethyl)-amino]-piperidin-1-yl}-ethanol dioxalate], the MIC was ≤ 0.125 µg/mL.
As for `COc1ccc2nccc([C@@H](O)CN3CCC(NCc4cnc5c(c4)NC(=O)CS5)CC3)c2c1` [Example 20, 7-({1-[(R)-2-Hydroxy-2-(6-methoxy-quinolin-4-yl)-ethyl]-piperidin-4-ylamino}-methyl)-1-H-pyrido[2,3-b][1,4]thiazin-2-one dioxalate], the MIC is ≤ 2 µg/mL.
